Reference: patent publication US4981842A, “Method of treating hormonal dependent mammary tumors in female mammals” (Roussel Uclaf, priority 1979, dated 1991)

How the values were obtained:
[1] = test system: testicular steroidogenesis; experiment: Inhibitory activity against testicular steroidogenesis in men in good health, single intranasal dose; assay type: in vivo; conditions: for seric level of testosterone/steroids on the fourth day after administration: fourth day (until 6th day)
Description: The inhibitory activity of [D Ser (tbu)^6 xdes Gly NH2^10 ]LH-RH ethylamide (described in German application Ser. No. 2,438,350) against testicular steroidogensis in men in good health was determined on men in good health aged 30 to 40 years. The said product was administered intranasally at a dose of 500 μg in a few drops of distilled water at 8 A.M. on the third day of the test. For 2 days prior to the treatment and for 6 days after the treatment, samples of blood were taken daily at 8 A.M., 3 P.M. and 10 P.M. On the day of administration of the LH-RH agonist, blood samples were taken at 11 A.M. and 6 P.M.
The seric concentrations of LH and FSH were measured by radioimmuno-logic dosages with double antibodies and the antiboides for measuring LH and FSH were furnished by the National Pituitary Agency of N.I.H. in Bethesda, Md. The seric concentrations of steroids was measured by radioimmuno-logic dosages in which one ml of serum was extracted with ether and the steroids were separated on a LH-20 column before measuring with radioimmuno-logic dosages. The radioimmuno-logic dosage results were determined by a program derived from model II of Rodbard et al [Second Karolinska Symposium on Research Methods in Reproductive Endroerinology, Diczfalusky Editer, Copenhague (1970), pp. 79-103]. The statistical significance was determined by the "multiple level test" of Duncan-Kramer [Kramer, Biometrics, vol. 12 (1956), p. 307]. The results are shown in the graphs on sheet 1 of the Figures filed herewith.

[2] = test system: testicular steroidogenesis; experiment: Inhibitory activity on testicular steroidogenesis in a patient with prostate cancer; assay type: in vivo, human; conditions: intranasal 500 μg twice a day
Description: The results are reported in the graphs of sheet 2 of the Figures.

ovarian steroidogenesis = experiment: Inhibitory activity on ovarian steroidogenesis in women; assay type: in vivo
Description: The inhibitory activity of [D Ser (tbu)^6 xdes Gly NH2^10 ]LH-RH ethylamide on ovarian steroidogenosis in women was determined on 6 women aged 26 to 35 years with normal and regular menstrual cycles and without prior endocrinal or gynecological problems. The study was conducted for 6 consecutive cycles consisting of 2 pretreatment cycles, 2 treatment cycles and 2 post-treatment cycles. Two drops of a solution containing 500 μg of [D Ser (tbu)^6 xdes Gly NH2^10 ] LH-RH ethylamide were deposited on each nostril at 8 A.M. and 5 P.M. of a day between the 4th and 9th day after the peak of LH-day 0. Daily blood samples were taken between 4 and 6 P.M. to measure seric levels of LH, FSH, progesterone and estradiol which were determined by radioimmuno-logictests with double antibodies. The antibodies to measure LH and FSH were furnished by the National Pituitory Agency of N.I.H. of Bethesda, Md.
Estradiol and progesterone were measured with highly specific antibodies developed against 7-(O-carboxymethyl)oxime of estradiol and 12-(O-carboxymethyl)-oxime of progesterone, respectively [3H] 17β-estradiol and ^125 I-progesterone -12-[O-carboxymethyl)-oxime]used as tracers. The serum was extracted with benzene and the steroids were separated with a LH-20 column before the determination. The radioimmunological results were exploited by the program derived from model II of Rodbard and Lewald as in Example 1 and the statistical significance was measured by the multiple level test of Ducan-Kramer of Example 1. The results are shown in the graphs of sheets 3 to 5 of the Figures.

[3] = test system: prostate and seminal vesicules; experiment: Peptide in association with an antiandrogen: weight of prostate and seminal vesicles in rats; assay type: in vivo, rats of the Sprague-Dawley strain; conditions: 14 days, 100 or 500 μg peptide s.c. plus 5 mg product A twice daily
Description: The effect of the administration of [D Ser (tbu)^6 des Gly NH2^10 ] LH-RH ethylamide in association with an antiandrogen was determined on groups of 9 normal rats of the Sprague-Dawley strain weighing about 250 g. The rats received for 14 days a subcutaneous administration at 9 A.M. of D Ser(Tbu)^6 of Gly^10 LH-RH ethylamide at a dose of 20, 100 or 500 μg in physiological serum and at 9 A.M. and 4 P.M. doses of 1 or 5 mg of 5,5-dimethyl-3-[4-nitro-3-trifluoromethyl-phenyl]-2,4-imidazolidinedione (product A) in solution in seasame oil containing 5% of benzyl alcohol. One group of rats received only physiological serum and one group received only product A.
The animals were killed 24 hours after the last injection and the weight of the prostate and seminal vesicules of the rats were determined.

[4] = intranasal 500 μg, 3rd day following administration
[5] = intranasal 500 μg at 8 A.M. and 5 P.M. of one day in luteal phase, typical subject (sheet 3)

CCNC(=O)[C@@H]1CCCN1C(=O)[C@H](CCCNC(=N)N)NC(=O)[C@H](CC(C)C)NC(=O)[C@@H](COC(C)(C)C)NC(=O)[C@H](Cc1ccc(O)cc1)NC(=O)[C@H](CO)NC(=O)[C@H](Cc1c[nH]c2ccccc12)NC(=O)[C@H](Cc1c[nH]cn1)NC(=O)[C@@H]1CCC(=O)N1 [[D Ser (tbu)^6 xdes Gly NH2^10] LH-RH ethylamide]
concentration of 17-OH-progesterone relative to initial control values [1, 4]: 40%
concentration of testosterone relative to initial control values [1, 4]: 50%
seric concentration of pregnenolone, 17-OH-pregnenolone, progesterone, 17-OH-progesterone, Δ5-androstene-3β,17β-diol and testosterone on the day of treatment ([1]; intranasal 500 μg, day of treatment): increased
plasmatic levels of LH and FSH ([1]; intranasal 500 μg, men): increase
seric level of testosterone/steroids on the fourth day after administration ([1]; single intranasal dose 500 μg): returned to normal
seric level of testosterone/steroids on the fourth day after administration ([1]; single intranasal dose 500 μg, listed as peptide): return to normal levels
duration of the drop of seric levels of testicular steroids (testosterone and its precursors) ([1]; single intranasal dose 500 μg, human): 3 days
diminution of the level of testosterone ([1]; single intranasal dose 500 μg, human, 3rd day following administration): 50%
level of androgenic steroids (plasma) [2]: diminution
level of testosterone (plasma) ([2]; two weeks of treatment): stabilized at a very low level
reduction of the level of progesterone as compared to the controls (ovarian steroidogenesis; 12 cycles of treatment (sheet 5)): 46%
progesterone level in cycles of post-treatment, pretreatment cycles as base of 100% (ovarian steroidogenesis; 12 cycles, 6 women): 99%
progesterone level in cycles of treatment, pretreatment cycles as base of 100% (ovarian steroidogenesis; 12 cycles, 6 women): 46%
reduction of seric levels of progesterone compared to controls, first cycle of treatment (ovarian steroidogenesis; [5]): 13%
reduction of seric levels of progesterone compared to controls, second cycle of treatment (ovarian steroidogenesis; [5]): 34%
level of seric progesterone over the 2 cycles of treatment (sheet 4) (ovarian steroidogenesis; return to normal for the 2 cycles of post-treatment): accelerated diminution
weight of the prostate [3]: Similar, but a little less marked
weight of the seminal vesicules [3]: approached the weight of the seminal vesicules of castrated rats
